Data taken from patent US8871728B2, “Non-peptide macrocyclic histone deacetylese (HDAC) inhibitors and methods of making and using thereof” (Georgia Tech Research Corporation, priority 2007, dated 2014).
≈ marks a conversion by molar mass, not a printed value. Where “and” joins values, the source holds several entries; their conditions need not be identical. Identical values can stand only once. Like-named read-outs stand apart in the source and are kept apart here.

Columns and labels:
[1] = system: DU 145 (androgen independent prostate cancer); test: Anti-cancer activity screen; assay type: cell-based
[2] = system: LNCaP (androgen dependent prostate cancer); test: Anti-cancer activity screen; assay type: cell-based
HDAC8 = HDAC8 (Homo sapiens (Human), UniProt Q9BY41); test: SAMDI mass spectrometry HDAC inhibition assay; assay type: biochemical
Protocol: (§1) There is precedence that fluorescently labeled substrates can perturb enzyme activity and the effect of inhibitors. […] Additionally, 3-hydroxypyridine-2-ones are highly colored solids and might lead to false positive signals. Mindful of these facts, a label-free SAMDI (self-assembled monolayers for MALDI) mass spectrometry assay was also used to assess HDAC inhibition.
(§2) The SAMDI technique, wherein self-assembled monolayers (SAM) of alkanethiolates on gold are analyzed by matrix assisted laser desorption/ionization (MALDI) mass spectrometry, has been widely used to characterize many biochemical activities, including the deacetylase enzyme family.

HDAC1 = HDAC1 (Homo sapiens (Human), UniProt Q13547); test: SAMDI mass spectrometry HDAC inhibition assay; assay type: biochemical; conditions: for HDAC1 inhibition, symbol: SAMDI; for HDAC1 % inhibition: at 10 μM, given if the IC50 was above 10 μM
Protocol: as §1, §2

[3] = system: Jurkat (T cell leukemia overexpressing HDAC8); test: Anti-cancer activity screen; assay type: cell-based
HDAC6 = HDAC6 (Homo sapiens (Human), UniProt Q9UBN7); test: SAMDI mass spectrometry HDAC inhibition assay; assay type: biochemical; conditions: for inhibition at 10 µM: read-out: HDAC6 % inhibition
Protocol: as §1
as §2, with “family. The SAMDI assay was used to measure the inhibition constant (K1) of fragments against HDAC1, HDAC6 and HDAC8 using a previously identified preferred HDAC substrate.” for “family.”

[4] = system: promastigote stage of L. donovani; test: Antileishmanial Alamar blue fluorometric assay; assay type: cell-based
Protocol: (§3) The compounds described herein were also evaluated for parasitic activity against Plasmodium falciparum and Leismania donovani. P. falciparum and L. donovani are the causative parasites of malaria and leishmaniasis, two human diseases which constitute a serious threat to public health in tropical and sub-tropical countries. Antimalarial activity was evaluated in vitro using chloroquine-sensitive (D6, Sierra Leone) and chloroquine-resistant (W2, Indochina) strains of P. falciparum. Antileishmanial activity was evaluated in vitro against the promastigote stage of L. donovani.
(§4) Plasmodium growth inhibition was determined by a parasite lactate dehydrogenase assay using Malstat reagent. Inhibition of viability of the promastigote stage of L. donovani was determined using standard Alamar blue assay, modified to a fluorometric assay.
as §3, with “Macrocyclic histone deacetylase inhibitors” for “The compounds described herein”, “were” for “were also”
as §4

[5] = system: Plasmodium falciparum (D6 clone), chloroquine-sensitive; test: Plasmodium growth inhibition, parasite lactate dehydrogenase assay (Malstat); assay type: cell-based; conditions: selective toxicity index, Vero versus D6
Protocol: as §3, §4
as §3, with “Macrocyclic histone deacetylase inhibitors” for “The compounds described herein”, “were” for “were also”
as §4

[6] = Homo sapiens, DU-145, calculated IC50 above 20 μM (highest concentration tested) also reported as >20
[7] = calculated IC50 above 20 μM (highest concentration tested) also reported as >20
[8] = Table 14, read-out: HDAC 8 (nm)
[9] = Homo sapiens, Jurkat, read-out: Jurkat (μm)
[10] = Table 14, read-out: HDAC 6 (nm)

Chain of HDAC8 (Q9BY41 whole entry): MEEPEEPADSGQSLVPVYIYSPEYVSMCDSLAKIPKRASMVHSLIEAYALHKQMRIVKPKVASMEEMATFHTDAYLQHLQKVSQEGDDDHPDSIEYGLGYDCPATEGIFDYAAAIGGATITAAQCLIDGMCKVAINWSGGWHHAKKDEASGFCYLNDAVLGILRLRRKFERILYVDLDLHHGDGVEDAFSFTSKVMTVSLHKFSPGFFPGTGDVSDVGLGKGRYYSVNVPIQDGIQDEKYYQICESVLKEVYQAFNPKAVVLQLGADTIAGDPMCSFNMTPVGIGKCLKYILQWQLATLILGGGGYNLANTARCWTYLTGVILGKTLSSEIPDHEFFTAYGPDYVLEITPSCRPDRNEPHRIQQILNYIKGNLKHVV
Chain of HDAC1 (Q13547 whole entry): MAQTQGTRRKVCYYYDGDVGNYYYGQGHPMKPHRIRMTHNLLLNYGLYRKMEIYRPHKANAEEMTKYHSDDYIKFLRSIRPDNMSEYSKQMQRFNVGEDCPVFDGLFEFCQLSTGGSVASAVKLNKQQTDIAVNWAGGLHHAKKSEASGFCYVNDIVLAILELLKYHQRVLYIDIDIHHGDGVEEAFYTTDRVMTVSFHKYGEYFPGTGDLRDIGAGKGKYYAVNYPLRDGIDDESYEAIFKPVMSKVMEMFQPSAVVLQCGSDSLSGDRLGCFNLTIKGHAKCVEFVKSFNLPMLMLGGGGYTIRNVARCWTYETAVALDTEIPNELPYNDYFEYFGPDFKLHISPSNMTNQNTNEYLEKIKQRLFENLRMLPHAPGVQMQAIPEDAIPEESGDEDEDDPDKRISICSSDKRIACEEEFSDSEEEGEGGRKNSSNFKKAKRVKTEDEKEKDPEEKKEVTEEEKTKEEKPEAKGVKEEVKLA
Chain of HDAC6 (Q9UBN7 whole entry): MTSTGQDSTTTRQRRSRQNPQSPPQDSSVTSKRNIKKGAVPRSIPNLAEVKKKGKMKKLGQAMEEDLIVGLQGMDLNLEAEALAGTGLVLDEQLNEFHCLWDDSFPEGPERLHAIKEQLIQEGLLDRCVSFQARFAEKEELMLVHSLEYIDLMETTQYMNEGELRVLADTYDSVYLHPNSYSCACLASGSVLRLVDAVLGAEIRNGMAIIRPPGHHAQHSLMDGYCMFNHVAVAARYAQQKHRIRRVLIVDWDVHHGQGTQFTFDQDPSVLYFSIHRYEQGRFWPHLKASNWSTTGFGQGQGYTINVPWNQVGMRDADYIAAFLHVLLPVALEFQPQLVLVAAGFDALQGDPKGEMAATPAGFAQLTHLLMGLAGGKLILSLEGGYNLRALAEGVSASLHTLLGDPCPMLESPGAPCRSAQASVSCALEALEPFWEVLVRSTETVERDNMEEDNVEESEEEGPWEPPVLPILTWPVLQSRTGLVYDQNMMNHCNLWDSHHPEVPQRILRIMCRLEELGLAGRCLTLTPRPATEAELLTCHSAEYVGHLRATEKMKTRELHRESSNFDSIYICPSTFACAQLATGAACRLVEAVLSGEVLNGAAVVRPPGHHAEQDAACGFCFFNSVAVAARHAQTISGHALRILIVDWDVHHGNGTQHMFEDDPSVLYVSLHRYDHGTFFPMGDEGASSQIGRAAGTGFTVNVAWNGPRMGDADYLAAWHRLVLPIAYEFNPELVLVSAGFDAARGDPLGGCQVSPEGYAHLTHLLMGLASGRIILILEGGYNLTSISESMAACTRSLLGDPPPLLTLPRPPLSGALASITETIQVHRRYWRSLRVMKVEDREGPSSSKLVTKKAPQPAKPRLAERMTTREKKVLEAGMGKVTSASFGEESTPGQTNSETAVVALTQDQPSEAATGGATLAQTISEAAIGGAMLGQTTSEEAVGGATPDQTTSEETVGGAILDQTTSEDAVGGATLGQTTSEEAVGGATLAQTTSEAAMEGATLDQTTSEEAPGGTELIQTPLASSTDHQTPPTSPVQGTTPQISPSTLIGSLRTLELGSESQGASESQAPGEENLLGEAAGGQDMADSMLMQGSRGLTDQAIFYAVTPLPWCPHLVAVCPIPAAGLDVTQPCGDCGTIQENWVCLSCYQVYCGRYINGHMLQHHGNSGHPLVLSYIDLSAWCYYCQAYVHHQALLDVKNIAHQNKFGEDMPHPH

Row | SMILES | IC50 [1, 6] [µM] | IC50 ([2]; Homo sapiens, LNCaP) [µM] | IC50 (HDAC8; [8]) [µM] | HDAC1 inhibition, symbol (HDAC1) | IC50 [3, 9] [µM] | IC50 [2] [µM] | IC50 (HDAC8; SAMDI, read-out: HDAC8 IC50) [µM] | IC50 ([3]; read-out: Jurkat (μm)) [µM] | IC50 (HDAC6; SAMDI, read-out: HDAC6 IC50) [µM] | IC50 (HDAC6; [10]) | also measured
1 | CN(C)c1ccc(-c2ccc(Cn3cccc(O)c3=S)cc2)cc1 [Compound 149g, 1-(4-Dimethylamino-(1,1′-biphenylmethyl))-3-hydroxyoxypyridine-2-thione] | > 20 | 16.2 ± 1.11 | 2.86 ± 0.944 | NI (No significant Inhibition (below 20% Inhibition)) | 10.6 ± 0.97 | – | – | – | – | – | IC50 [1, 7]: 22.8 ± 3.8 µM; HDAC6 inhibition, symbol (HDAC6; SAMDI): NI (No significant Inhibition (below 20% Inhibition))
2 | Oc1cccn(Cc2cn(-c3ccccc3)nn2)c1=S [Compound 154a, 1-Phenyltriazolylmethyl-3-hydroxypyridine-2-thione] | 24 ± 7.47 | 13.1 ± 1.51 | – | – | 4.68 ± 0.34 | – | – | – | – | – | IC50 [1, 7]: > 20 µM; inhibition at 10 µM (HDAC6): 41%
3 | Oc1cccn(CCCCCn2cc(-c3ccccc3)nn2)c1=S [Compound 162d, 1-Phenyltriazolylpentyl-3-hydroxypyridine-2-thione] | – | – | 0.917 ± 0.139 | NI (No significant Inhibition (below 20% Inhibition)) | – | 5.43 ± 0.47 | 0.917 | 3.27 ± 0.6 | 0.911 | 0.911 ± 0.173 µM | IC50 [1]: 9.33 ± 0.96 µM; HDAC8 activity difference between 162d and 162e (HDAC8; SAMDI): ~7 fold; HDAC1 % inhibition (HDAC1): 30%
4 | Oc1cccn(CCCCCCCn2cc(-c3ccccc3)nn2)c1=S [Compound 162f, 1-Phenyltriazolylheptyl-3-hydroxypyridine-2-thione] | – | – | 1.38 ± 0.205 | NI (No significant Inhibition (below 20% Inhibition)) | – | 11 ± 1.92 | 0.232 ± 0.019 | 9.04 ± 1.31 | 0.955 ± 0.15 | 0.955 ± 0.15 µM | IC50 [1]: 17.7 ± 3.28 µM; HDAC1 % inhibition (HDAC1): 35%
5 | N#Cc1cccc(-c2cn(CCCCCn3cccc(O)c3=S)nn2)c1 [Compound 167e, 1-(3-Benzonitrile)triazolylpentyl-3-hydroxypyridine-2-thione] | – | 4.95 ± 0.43 | 2.4 ± 0.263 | – | 5.18 ± 1.18 | 3.49 ± 0.34 | 2.83 | 3.44 ± 0.57 | 0.356 | 0.637 µM and 0.356 µM | –
6 | Oc1cccn(Cc2ccc(Cn3cc(-c4ccccc4)nn3)cc2)c1=S [Compound 168] | 16.1 ± 2.24 | 7.8 ± 0.55 | 5.47 ± 1.6 | NI (No significant Inhibition (below 20% Inhibition)) | – | – | – | – | – | 0.534 ± 0.185 µM | IC50 ([3]; Homo sapiens, Jurkat; read-out: Jurkat (μm)): 6.55 ± 0.91 µM
7 | N=C(N)c1ccc(OCCCCCOc2ccc(C(=N)N)cc2)cc1 [Pentamidine, pentamidine, reference compound] | – | – | – | – | – | – | – | – | – | – | IC50 ([4]; Leishmania donovani, promastigotes, read-out: Antileshmanial activity IC50): 0.9 µg/mL (≈ 2.64 µM); Antileshmanial activity IC50 ([4]; promastigotes): 1.4 µg/mL
8 | O=C(CCCCCCC(=O)Nc1ccccc1)NO [SAHA, suberoylanilide hydroxamic acid, reference compound] | – | – | – | – | – | – | – | – | – | – | S.I. D6 [5]: 4.8; inhibition at 10 µM (HDAC6): 95%; IC90 ([4]; Leishmania donovani, read-out: Antileshmanial activity IC90 (μg/ml)): 50 µg/mL (≈ 189 µM)
